This is an account of results in patent US20230312587A1, “PTERIDINONE COMPOUNDS AND USES THEREOF” (Vertex Pharmaceutical Incorporated, priority 2018, published 2023).

What is called IC50 is the concentration at which inhibition is half-maximal.

Like-named read-outs stand apart in the source and are kept apart here.

In the assay the test system is β-catenin-TCF-mediated reporter transcription activity in Colo 205 cells. Nature of the assay: Colo 205 reporter assay (TCF/LEF luciferase). The class given is cell-based. Conditions: Colo 205 TCF/LEF luciferase reporter, read-out: TCF reporter Colo205 IC50. Summed up: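 Luciferase signal from a TCF/LEF-driven reporter, stably integrated in Colo 205 colon cancer cells, was measured 5 h after compound addition.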
(In general: A reporter such as luciferase makes a cellular process visible.)

Where [1] appears, read: Homo sapiens, COLO 205, 5 h, five hours after addition of compound.
Where [2] appears, read: five hours after addition of compound.
[3] abbreviates: Homo sapiens, COLO 205, 5 h, R-isomer at C2 (corresponding to C2 S-isomer), 5 h.

Take `CO[C@H](C)[C@H]1C(=O)Nc2c(C)nc(N[C@H]3C[C@H](n4ccc(C(F)(F)F)n4)C3)nc2N1C` [Compound 731, (S)-7-((R)-1-methoxyethyl)-4,8-dimethyl-2-((trans-3-(3-(trifluoromethyl)-1H-pyrazol-1-yl)cyclobutyl)amino)-7,8-dihydropteridin-6(5H)-one]: under setting [1], the half-maximal inhibitory concentration (IC50) was at least 5000 nM. In the case of `Cc1nc(N[C@H]2C[C@@H](Nc3ccc(F)cn3)C2)nc2c1NC(=O)[C@H](C(C)C)N2C` [Compound 732, (S)-2-((cis-3-((5-fluoropyridin-2-yl)amino)cyclobutyl)amino)-7-isopropyl-4,8-dimethyl-7,8-dihydropteridin-6(5H)-one], under setting [1], the half-maximal inhibitory concentration (IC50) lay within 1000 to 5000 nM. Turning to `COc1ccc(N[C@H]2C[C@@H](Nc3nc(C)c4c(n3)N(C)[C@@H](C(C)C)C(=O)N4)C2)nc1` [Compound 733, (S)-7-isopropyl-2-((cis-3-((5-methoxypyridin-2-yl)amino)cyclobutyl)amino)-4,8-dimethyl-7,8-dihydropteridin-6(5H)-one], the 50% inhibitory concentration (IC50) under setting [1] was at least 5000 nM. Turning to `Cc1nc(N[C@H]2C[C@@H](Nc3ncc(C(F)(F)F)cn3)C2)nc2c1NC(=O)[C@H](C(C)C)N2C` [Compound 734, (S)-7-isopropyl-4,8-dimethyl-2-((cis-3-((5-(trifluoromethyl)pyrimidin-2-yl)amino)cyclobutyl)amino)-7,8-dihydropteridin-6(5H)-one], under setting [1], the IC50 was in the range of 300 to 1000 nM.

Turning to `Cc1nc(N[C@@H]2CC[C@H](Nc3cnc(C(F)(F)F)cn3)C2)nc2c1NC(=O)[C@H](C(C)C)N2C` [Compound 735, (S)-7-isopropyl-4,8-dimethyl-2-(((1R,3S)-3-((5-(trifluoromethyl)pyrazin-2-yl)amino)cyclopentyl)amino)-7,8-dihydropteridin-6(5H)-one], the half-maximal inhibitory concentration (IC50) under setting [1] is below 300 nM. Turning to `CO[C@H](C)[C@H]1C(=O)Nc2c(C)nc(N[C@@H]3CC[C@H](Nc4cnc(C(F)(F)F)cn4)C3)nc2N1C` [Compound 736, (S)-7-((R)—1-methoxyethyl)-4,8-dimethyl-2-(((1R,3S)-3-((5-(trifluoromethyl)pyrazin-2-yl)amino)cyclopentyl)amino)-7,8-dihydropteridin-6(5H)-one], under setting [1], the IC50 lay within 300 to 1000 nM. As for `Cc1nc(N[C@@H]2CC[C@H](Nc3cnc(C(F)(F)F)cn3)C2)nc2c1NC(=O)[C@H](C)N2C` [Compound 737, (S)-4,7,8-trimethyl-2-(((1R,3S)-3-((5-(trifluoromethyl)pyrazin-2-yl)amino)cyclopentyl)amino)-7,8-dihydropteridin-6(5H)-one], the 50% inhibitory concentration (IC50) under setting [1] is 1000 to 5000 nM. Take `CC[C@H]1C(=O)Nc2c(C)nc(N[C@@H]3CC[C@H](Nc4cnc(C(F)(F)F)cn4)C3)nc2N1C` [Compound 738, (S)-7-ethyl-4,8-dimethyl-2-(((1R,3S)-3-((5-(trifluoromethyl)pyrazin-2-yl)amino)cyclopentyl)amino)-7,8-dihydropteridin-6(5H)-one]: under setting [1], the IC50 lay in the range of 300 to 1000 nM. On the same count and under the same terms, the figure for `CC[C@H]1C(=O)Nc2c(C)nc(NC3CN(C(=O)c4cc(F)c(F)c(F)c4)C3)nc2N1C` [Compound 739, (S)-7-ethyl-4,8-dimethyl-2-((1-(3,4,5-trifluorobenzoyl)azetidin-3-yl)amino)-7,8-dihydropteridin-6(5H)-one] is 300 to 1000 nM; for `Cc1nc(NC2CN(C(=O)c3cc(F)c(F)c(F)c3)C2)nc2c1NC(=O)[C@H](C)N2C` [Compound 740, (S)-4,7,8-trimethyl-2-((1-(3,4,5-trifluorobenzoyl)azetidin-3-yl)amino)-7,8-dihydropteridin-6(5H)-one] it is 300 to 1000 nM. With `Cc1nc(NCc2cnn(Cc3cc(F)c(F)c(F)c3)c2)nc2c1NC(=O)[C@H](COC(C)(C)C)N2C` [Compound 741, (S)-7-(tert-butoxymethyl)-4,8-dimethyl-2-(((1-(3,4,5-trifluorobenzyl)-1H-pyrazol-4-yl)methyl)amino)-7,8-dihydropteridin-6(5H)-one], the IC50 under setting [1] is 300 to 1000 nM. Regarding `Cc1nc(NCc2cnn(Cc3ccc(C(F)(F)F)nc3)c2)nc2c1NC(=O)[C@H]([C@H](C)OC(C)(C)C)N2C` [Compound 742, (S)-7-((S)-1-(tert-butoxy)ethyl)-4,8-dimethyl-2-(((1-((6-(trifluoromethyl)pyridin-3-yl)methyl)-1H-pyrazol-4-yl)methyl)amino)-7,8-dihydropteridin-6(5H)-one], the IC50 under setting [1] lay within 1000 to 5000 nM. As for `Cc1nc(N[C@H]2C[C@@H](Cn3nccc3C(F)(F)F)C2)nc2c1NC(=O)[C@H](CO)N2C` [Compound 743, (S)-7-(hydroxymethyl)-4,8-dimethyl-2-(((1s,3R)-3-((5-(trifluoromethyl)-1H-pyrazol-1-yl)methyl)cyclobutyl)amino)-7,8-dihydropteridin-6(5H)-one], the 50% inhibitory concentration (IC50) under setting [2] lay in the range of 1000 to 5000 nM.

For `Cc1nc(NCc2cnn(Cc3ccc(C(F)(F)F)nc3)c2)nc2c1NC(=O)[C@H]([C@@H](C)O)N2C` [Compound 744, (S)-7-((R)-1-hydroxyethyl)-4,8-dimethyl-2-(((1-((6-(trifluoromethyl)pyridin-3-yl)methyl)-1H-pyrazol-4-yl)methyl)amino)-7,8-dihydropteridin-6(5H)-one], the IC50 under setting [1] lay within 300 to 1000 nM. As for `Cc1nc(N[C@H]2C[C@H](Oc3cc(F)c(F)c(F)c3)C2)nc2c1NC(=O)[C@H]([C@H](C)OC(C)(C)C)N2C` [Compound 745, (S)-7-((S)-1-(tert-butoxy)ethyl)-4,8-dimethyl-2-(((1r,3S)-3-(3,4,5-trifluorophenoxy)cyclobutyl)amino)-7,8-dihydropteridin-6(5H)-one], the IC50 under setting [2] fell in the range of 300 to 1000 nM.

As to `COc1c(F)cc(Cn2cc(CNc3nc(C)c4c(n3)N(C)[C@@H]([C@H](C)OC(C)(C)C)C(=O)N4)cn2)cc1F` [Compound 746, (S)-7-((S)-1-(tert-butoxy)ethyl)-2-(((1-(3,5-difluoro-4-methoxybenzyl)-1H-pyrazol-4-yl)methyl)amino)-4,8-dimethyl-7,8-dihydropteridin-6(5H)-one], the IC50 under setting [1] was 300 to 1000 nM.

As for `C=C1C(=O)Nc2c(C)nc(NCc3cnn(Cc4ccc(C(F)(F)F)nc4)c3)nc2N1C` [Compound 749, 4,8-dimethyl-7-methylene-2-(((1-((6-(trifluoromethyl)pyridin-3-yl)methyl)-1H-pyrazol-4-yl)methyl)amino)-7,8-dihydropteridin-6(5H)-one], under setting [1], the IC50 lay within 1000 to 5000 nM. On the same count and under the same terms, the figure for `CC[C@@]1(C)C(=O)N(C)c2cnc(NCc3cnn(Cc4ccc(F)cc4)c3)nc2N1C` [Compound I-226] is below 300 nM; for `Cc1nc(N[C@H]2CCN(C(=O)c3cc(F)c(F)c(F)c3)C2)nc2c1NC(=O)[C@H](C(C)C)N2C` [Compound I-509] it is 300 to 1000 nM. Take `Cc1nc(N[C@@H]2CCN(C(=O)c3cc(F)c(F)c(F)c3)C2)nc2c1NC(=O)[C@H](C(C)C)N2C` [Compound I-541]: the IC50 under setting [1] is 300 to 1000 nM. As to `C[C@@H]1C(=O)N(C)c2cnc(NCc3cnn(Cc4ccc(F)cc4)c3)nc2N1C` [Compound I-809], the IC50 under setting [3] was 300 to 1000 nM. Regarding `CCN1c2nc(NCc3cnn(Cc4ccc(F)cc4)c3)ncc2N(C)C(=O)[C@H]1C` [Compound I-860], the half-inhibitory concentration (IC50) under setting [3] is below 300 nM.

Turning to `Cc1nc(NCc2cnn(Cc3ccc(F)cc3)c2)nc2c1N(C)C(=O)[C@@H](C)N2C` [Compound I-866], the IC50 under setting [3] is 300 to 1000 nM. Consider `C[C@@H]1C(=O)Nc2cnc(NCc3cnn(Cc4cc(F)c(F)c(F)c4)c3)nc2N1C` [Compound I-896], for which, under setting [3], the IC50 was in the range of 300 to 1000 nM. Still for that read-out and setting: with `CCC[C@@H]1C(=O)N(C)c2cnc(NCc3cnn(Cc4ccc(F)cc4)c3)nc2N1C` [Compound I-984] the figure was 300 to 1000 nM; with `CCN1C(=O)[C@@H](C)N(CC)c2nc(NCc3cnn(Cc4ccc(F)cc4)c3)ncc21` [Compound I-985], below 300 nM.

As for `CC[C@@H]1C(=O)N(CC)c2cnc(NCc3cnn(Cc4ccc(F)cc4)c3)nc2N1C` [Compound I-987], the IC50 under setting [3] is below 300 nM.

In the case of `CCN1C(=O)[C@@H](C)N(C(C)C)c2nc(NCc3cnn(Cc4ccc(F)cc4)c3)ncc21` [Compound I-1144], the IC50 under setting [3] lay within 300 to 1000 nM. For `CC[C@@H]1C(=O)N(C)c2cnc(NCc3cnn(Cc4ccc(F)cc4)c3)nc2N1C(C)C` [Compound I-1146], the IC50 under setting [3] lay within 300 to 1000 nM. Turning to `COc1c(F)cc(Cn2cc(CNc3nc(C)c4c(n3)N(C)[C@H](C)C(=O)N4)cn2)cc1F` [Compound I-1205], under setting [3], the IC50 is below 300 nM.

For the compound `Cc1nc(NCc2cnn(Cc3cc(F)c(F)c(F)c3)c2)nc2c1N(C)C(=O)[C@@H](C)N2C` [Compound I-1229], the concentration for half-maximal inhibition (IC50) under setting [3] was below 300 nM.

For the compound `CCC[C@@H]1C(=O)N(C)c2cnc(NCc3cnn(Cc4cc(F)c(F)c(F)c4)c3)nc2N1C` [Compound I-1348], the IC50 under setting [3] is below 300 nM. Regarding `CCN1C(=O)[C@@H](C)N(CC)c2nc(NCc3cnn(Cc4cc(F)c(F)c(F)c4)c3)ncc21` [Compound I-1349], the IC50 under setting [3] was below 300 nM. In the case of `Cc1nc(NCc2cnn(Cc3ccc(C(F)(F)F)nc3)c2)nc2c1N(C)C(=O)[C@@H](C)N2C` [Compound I-1363], the concentration for half-maximal inhibition (IC50) under setting [3] is 300 to 1000 nM. With `CCN1C(=O)[C@@H](C)N(C(C)C)c2nc(NCc3cnn(Cc4cc(F)c(F)c(F)c4)c3)ncc21` [Compound I-1463], the half-inhibitory concentration (IC50) under setting [3] was below 300 nM.

Regarding `CC[C@@H]1C(=O)N(C)c2cnc(NCc3cnn(Cc4cc(F)c(F)c(F)c4)c3)nc2N1C(C)C` [Compound I-1465], the concentration for half-maximal inhibition (IC50) under setting [3] was below 300 nM. In the case of `Cc1nc(NCc2cnn(Cc3cc(C(F)(F)F)nn3C)c2)nc2c1NC(=O)[C@@H](C1CC1)N2C` [Compound I-1498], under setting [3], the half-maximal inhibitory concentration (IC50) was 300 to 1000 nM. Consider `CC[C@@H]1C(=O)Nc2cnc(NCc3cnn(Cc4ccc(F)cc4)c3)nc2N1C` [Compound I-1634], for which the concentration for half-maximal inhibition (IC50) under setting [3] was at least 5000 nM. `CC[C@@H]1C(=O)Nc2c(C)nc(NCc3cnn(Cc4ccc(C(F)(F)F)nc4)c3)nc2N1C` [Compound I-1635]: the IC50 under setting [3] fell in the range of 1000 to 5000 nM. Turning to `Cc1nc(NCc2cnn(Cc3ccc(C(F)(F)F)nc3)c2)nc2c1NC(=O)[C@@H](C)N2C` [Compound I-1636], the half-inhibitory concentration (IC50) under setting [3] lay in the range of 1000 to 5000 nM. As for `Cc1nc(NCc2cnn(Cc3ccncc3C(F)(F)F)c2)nc2c1NC(=O)[C@@H](C)N2C` [Compound I-1637], under setting [3], the IC50 was in the range of 1000 to 5000 nM.
